Reference: patent publication US20250092039A1, “GLUTARIMIDE-CONTAINING PAN-KRAS-MUTANT DEGRADER COMPOUNDS AND USES THEREOF” (Tiger Biotherapeutics Inc., priority 2022, published 2025)
Read-outs that look alike come from different tables or passages of the source.

Tests used:
KRAS G12V = KRAS G12V (Homo sapiens (Human), UniProt P01116, G12V); test: KRAS G12V degradation in SW620 cells (Western blot, DC50); format: cell-based; conditions: 24 hours
Procedure: SW620 (KRAS G12V homozygous), AsPC1 (KRAS G12D homozygous), MIA PaCa2 (KRAS G12C homozygous), A549 (KRAS G12S homozygous) and MCF7 (KRAS WT) cells were obtained from American Type Culture Collection (ATCC). […] The following day, the test compound was administered to the cells by using 1000× compound stock solution prepared in DMSO at various concentrations. After administration of the compound, the cells were then incubated at 37° C. for 24 hours. Upon completion, the cells were washed with PBS and protein was collected in Laemmli sample buffer (1×; VWR International). Proteins in cell lysate were separated by SDS-PAGE and transferred to Odyssey nitrocellulose membranes (Licor) with iblot® dry blotting transfer system (ThermoFisher). Nonspecific binding was blocked by incubating membranes with Intercept Blocking Buffer (Licor) for 1 hour at room temperature with gentle shaking. […] After washing 3 times with TBS-T, the membranes were incubated with IRDye® 800CW goat anti-rabbit IgG (1:20,000, Licor) and IRDye® 680RD goat anti-mouse IgG (1:20,000, Licor) for 1 hour. After TBS-T washes, membranes were rinsed in TBS and Western blot images were acquired by Odyssey CLx (LI-COR Biosciences).
The signal intensity of target proteins was calculated using ImageStudio software. KRAS fluorescent intensity (FLU) from DMSO (vehicle) treatment was set as 100%. Relative KRAS expression level was determined by the following formula: […]
The percentage of KRAS expression was calculated using Microsoft Excel. The half-maximal degradation concentration (DCso) values were generated by GraphPad Prism (Version 9) using the dose-response equation of variable slope (four parameters).

SW620 cells = test: 3D cell growth inhibition of SW620 cells carrying endogenous KRAS G12V mutation (CellTiter-Glo 3D, GI50); format: cell-based; conditions: Homo sapiens, SW-620, 144 h, read-out: SW620 3D cell growth GI50
Procedure: The following day, the test compound was administered to the cells by using 1000× compound stock solution prepared in DMSO at various concentrations. 1000× compound stock solution was first diluted in culturing medium to 10×, then 10 μL compound medium was added to each well in the cell plates. After administration of the compound, the cells were then incubated at 37° C. for 6 days. Upon completion, the plates were equilibrated at room temperature for approximately 10 minutes. 100 μL of CellTiter-Glo® 3D Reagent (Promega) was added to each well. The plates were then incubated at room temperature for 30 minutes and luminescence was recorded by EnSpire plate reader (PerkinElmer).

KRAS-G12V/RAF1 = KRAS-G12V/RAF1 (Homo sapiens (Human), UniProt P01116, G12V); test: KRAS/RAF1 binding inhibition assay (AlphaScreen)
KRAS-G12V/RAF1, sequence (P01116-2 other isoform, or with tags, fused parts or gaps G12V): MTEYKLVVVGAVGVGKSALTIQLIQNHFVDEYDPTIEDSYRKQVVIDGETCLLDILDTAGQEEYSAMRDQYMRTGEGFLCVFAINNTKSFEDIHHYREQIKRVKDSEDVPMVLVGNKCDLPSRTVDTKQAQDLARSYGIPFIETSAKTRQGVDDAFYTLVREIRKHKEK
Procedure: Binding affinity against GTP-bound KRAS of the compounds disclosed herein was measured by monitoring the interaction of guanosine 5′-[β,γ-imido]triphosphate-bound (GppNHp-bound) KRAS with the RBD domain of RAF1 in the presence of the test compound. […] The test compounds in 2% DMSO (final concentration) at various concentrations were then added to the reaction mixture and incubated for 60 minutes at 4° C.
Raw ALphaScreen data were converted to a percentage of inhibition (relative to DMSO) using the following equations: • a) For a given test compound concentration X: […]
The IC50 values were determined by nonlinear regression of plots of [inhibitor] vs. percentage of inhibition with variable slope, analyzed using GraphPad Prism (Version 9).

KRAS G12V, sequence (P01116-2 other isoform, or with tags, fused parts or gaps G12V): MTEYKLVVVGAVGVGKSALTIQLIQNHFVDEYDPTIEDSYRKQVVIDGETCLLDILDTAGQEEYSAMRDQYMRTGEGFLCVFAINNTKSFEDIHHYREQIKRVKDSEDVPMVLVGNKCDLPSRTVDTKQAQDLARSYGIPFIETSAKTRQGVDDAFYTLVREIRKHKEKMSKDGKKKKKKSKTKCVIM

Row | DC50 (KRAS G12V) [nM] | GI50 (SW620 cells; SW620 cells, 6 days) [nM] | IC50 (KRAS-G12V/RAF1) [nM] | Structure (SMILES) | GI50 (SW620 cells) [nM]
1 | > 100 | > 100 |  | Cc1cc(N)nc(-c2c(Cl)c3c4c(nc(OCC5(CN6CCC7(CC6)CC(CN6CCN(c8ccc9c(c8)CN([C@H]8CCC(=O)NC8=O)C9=O)CC6)C7)CC5)nc4c2F)N(C(C)c2cccnc2N)CCO3)c1C(F)(F)F (stereo partly drawn) [Compound 5, (3S)-3-(5-(4-((7-((1-(((9-(6-amino-4-methyl-3-(trifluoromethyl)pyridin-2-yl)-4-(1-(2-aminopyridin-3-yl)ethyl)-8-chloro-10-fluoro-5,6-dihydro-4H-[1,4]oxazepino[5,6,7-de]quinazolin-2-yl)oxy)methyl)cyclopropyl)methyl)-7-azaspiro[3.5]nonan-2-yl)methyl)piperazin-1-yl)-1-oxoisoindolin-2-yl)piperidine-2,6-dione] | 
2 | 1 to 10 | < 10 |  | CCc1c(F)ccc2cc(O)cc(-c3ncc4c(N5CCC[C@]6(CCO6)C5)nc(OCC5(CN6CC7(CCC(N8CCN(c9cc(F)c(C%10CCC(=O)NC%10=O)c(F)c9)CC8)CC7)C6)CC5)nc4c3F)c12 (stereo partly drawn) [Compound 85, 3-(4-(4-(2-((1-(((7-(8-ethyl-7-fluoro-3-hydroxynaphthalen-1-yl)-8-fluoro-4-((S)-1-oxa-6-azaspiro[3.5]nonan-6-yl)pyrido[4,3-d]pyrimidin-2-yl)oxy)methyl)cyclopropyl)methyl)-2-azaspiro[3.5]nonan-7-yl)piperazin-1-yl)-2,6-difluorophenyl)piperidine-2,6-dione] | 
3 | < 1 | < 10 |  | C[C@@]1(O)CCCN(c2nc(OCC3(CN4CCC(CN5CCN(c6ccc7c(c6)CN([C@H]6CCC(=O)NC6=O)C7=O)CC5)CC4)CC3)nc3c(F)c(-c4cc(O)cc5ccc(F)c(Cl)c45)ncc23)C1 [Compound 156, (S)-3-(5-(4-((1-((1-(((7-(8-chloro-7-fluoro-3-hydroxynaphthalen-1-yl)-8-fluoro-4-((R)-3-hydroxy-3-methylpiperidin-1-yl)pyrido[4,3-d]pyrimidin-2-yl)oxy)methyl)cyclopropyl)methyl)piperidin-4-yl)methyl)piperazin-1-yl)-1-oxoisoindolin-2-yl)piperidine-2,6-dione] | 
4 | < 1 | < 10 |  | CCc1c(F)ccc2cc(O)cc(-c3ncc4c(N5CCC[C@@](C)(O)C5)nc(OCC5(CN6CCC7(CC6)CC(C)(N6CCN(c8ccc9c(c8)CN(C8CCC(=O)NC8=O)C9=O)CC6)C7)CC5)nc4c3F)c12 (stereo partly drawn) [Compound 159, 3-[5-[4-[7-[[1-[[7-(8-ethyl-7-fluoro-3-hydroxy-1-naphthyl)-8-fluoro-4-[(3R)-3-hydroxy-3-methyl-1-piperidyl]pyrido[4,3-d]pyrimidin-2-yl]oxymethyl]cyclopropyl]methyl]-2-methyl-7-azaspiro[3.5]nonan-2-yl]piperazin-1-yl]-1-oxo-isoindolin-2-yl]piperidine-2,6-dione] | 
5 | 1 to 10 | < 10 |  | CCc1c(F)ccc2cc(O)cc(-c3ncc4c(N5CCC[C@@](C)(O)C5)nc(OCC5(CN6CC(N7CC8(CN(c9ccc%10c(c9)CN(C9CCC(=O)NC9=O)C%10=O)C8)C7)C6)CC5)nc4c3F)c12 (stereo partly drawn) [Compound 158, 3-(5-(6-(1-((1-(((7-(8-ethyl-7-fluoro-3-hydroxynaphthalen-1-yl)-8-fluoro-4-((R)-3-hydroxy-3-methylpiperidin-1-yl)pyrido[4,3-d]pyrimidin-2-yl)oxy)methyl)cyclopropyl)methyl)azetidin-3-yl)-2,6-diazaspiro[3.3]heptan-2-yl)-1-oxoisoindolin-2-yl)piperidine-2,6-dione] | 
6 | > 100 | > 100 |  | CCc1c(F)ccc2cc(O)cc(-c3ncc4c(N5CCC[C@@](C)(O)C5)nc(OCC5(CN6CCC7(CC6)CC(CN6Cc8ccc(C9CCC(=O)NC9=O)cc8C6)C7)CC5)nc4c3F)c12 (stereo partly drawn) [Compound 34, 3-(2-((7-((1-(((7-(8-ethyl-7-fluoro-3-hydroxynaphthalen-1-yl)-8-fluoro-4-((R)-3-hydroxy-3-methylpiperidin-1-yl)pyrido[4,3-d]pyrimidin-2-yl)oxy)methyl)cyclopropyl)methyl)-7-azaspiro[3.5]nonan-2-yl)methyl)isoindolin-5-yl)piperidine-2,6-dione] | 
7 | > 100 | > 100 |  | CCc1c(F)ccc2cc(O)cc(-c3ncc4c(N5CCC[C@@](C)(O)C5)nc(OCC5(CN6CCC(N7CC(CN8CCN(c9ccc(C%10CCC(=O)NC%10=O)cc9)CC8)C7)CC6)CC5)nc4c3F)c12 (stereo partly drawn) [Compound 21, 3-(4-(4-((1-(1-((1-(((7-(8-ethyl-7-fluoro-3-hydroxynaphthalen-1-yl)-8-fluoro-4-((R)-3-hydroxy-3-methylpiperidin-1-yl)pyrido[4,3-d]pyrimidin-2-yl)oxy)methyl)cyclopropyl)methyl)piperidin-4-yl)azetidin-3-yl)methyl)piperazin-1-yl)phenyl)piperidine-2,6-dione] | 
8 | > 100 | > 100 |  | CCc1c(F)ccc2cc(O)cc(-c3ncc4c(N5CCC[C@@](C)(OC)C5)nc(OCC5(CN6CCC7(CC6)CC(CN6CCN(c8ccc9c(c8)CN([C@H]8CCC(=O)NC8=O)C9=O)CC6)C7)CC5)nc4c3F)c12 [Compound 36, (S)-3-(5-(4-((7-((1-(((7-(8-ethyl-7-fluoro-3-hydroxynaphthalen-1-yl)-8-fluoro-4-((R)-3-methoxy-3-methylpiperidin-1-yl)pyrido[4,3-d]pyrimidin-2-yl)oxy)methyl)cyclopropyl)methyl)-7-azaspiro[3.5]nonan-2-yl)methyl)piperazin-1-yl)-1-oxoisoindolin-2-yl)piperidine-2,6-dione] | 
9 | 1 to 10 | < 10 |  | CCc1c(F)ccc2cc(O)cc(-c3ncc4c(N5CCCC6(CCO6)C5)nc(OCC5(CN6CCC(CN7CC(N8CCN(c9ccc%10c(c9)CN([C@H]9CCC(=O)NC9=O)C%10=O)CC8)C7)CC6)CC5)nc4c3F)c12 (stereo partly drawn) [Compound 37, (3S)-3-(5-(4-(1-((1-((1-(((7-(8-ethyl-7-fluoro-3-hydroxynaphthalen-1-yl)-8-fluoro-4-(1-oxa-6-azaspiro[3.5]nonan-6-yl)pyrido[4,3-d]pyrimidin-2-yl)oxy)methyl)cyclopropyl)methyl)piperidin-4-yl)methyl)azetidin-3-yl)piperazin-1-yl)-1-oxoisoindolin-2-yl)piperidine-2,6-dione] | 
10 | > 100 |  | 20 to 200 | CCc1c(F)ccc2cc(O)cc(-c3ncc4c(N5CCCOC6CC65)nc(OCC5(CN6CCC(CN7CCN(c8ccc9c(c8)CN([C@H]8CCC(=O)NC8=O)C9=O)CC7)CC6)CC5)nc4c3F)c12 (stereo partly drawn) [Compound 160, (3S)-3-(5-(4-((1-((1-(((4-(2-oxa-6-azabicyclo[5.1.0]octan-6-yl)-7-(8-ethyl-7-fluoro-3-hydroxynaphthalen-1-yl)-8-fluoropyrido[4,3-d]pyrimidin-2-yl)oxy)methyl)cyclopropyl)methyl)piperidin-4-yl)methyl)piperazin-1-yl)-1-oxoisoindolin-2-yl)piperidine-2,6-dione] | 

Row | Structure (SMILES) | DC50 (KRAS G12V) [nM] | GI50 (SW620 cells; SW620 cells, 6 days) [nM] | IC50 (KRAS-G12V/RAF1) [nM] | GI50 (SW620 cells) [nM]
11 | CCc1c(F)ccc2cc(O)cc(-c3ncc4c(N5CCCOC6CC65)nc(OCC5(CN6CCC7(CC6)CC(CN6CCN(c8ccc9c(c8)CN([C@H]8CCC(=O)NC8=O)C9=O)CC6)C7)CC5)nc4c3F)c12 (stereo partly drawn) [Compound 165, (3S)-3-(5-(4-((7-((1-(((4-(2-oxa-6-azabicyclo[5.1.0]octan-6-yl)-7-(8-ethyl-7-fluoro-3-hydroxynaphthalen-1-yl)-8-fluoropyrido[4,3-d]pyrimidin-2-yl)oxy)methyl)cyclopropyl)methyl)-7-azaspiro[3.5]nonan-2-yl)methyl)piperazin-1-yl)-1-oxoisoindolin-2-yl)piperidine-2,6-dione] | 1 to 10 |  |  | 10 to 100
